Measured values taken from patent US8097654B2, “Radiolabeled 3-[3-(benzoyl-amido)benzyloxy]aspartic acid derivative and method of producing the same” (Suntory Holdings Limited, priority 2004, dated 2012).

What was measured:
[1] = target: T1, human EAAT3 (Homo sapiens, UniProt P43005); assay: Inhibition of [14C]-glutamic acid uptake by EAAT3 expressed in MDCK or COS-1 cells; type: cell-based; settings: 1 μM L-[14C]-glutamic acid, 12 minutes
T1 construct: expressed in transfected cells
T1 sequence (P43005 1-524): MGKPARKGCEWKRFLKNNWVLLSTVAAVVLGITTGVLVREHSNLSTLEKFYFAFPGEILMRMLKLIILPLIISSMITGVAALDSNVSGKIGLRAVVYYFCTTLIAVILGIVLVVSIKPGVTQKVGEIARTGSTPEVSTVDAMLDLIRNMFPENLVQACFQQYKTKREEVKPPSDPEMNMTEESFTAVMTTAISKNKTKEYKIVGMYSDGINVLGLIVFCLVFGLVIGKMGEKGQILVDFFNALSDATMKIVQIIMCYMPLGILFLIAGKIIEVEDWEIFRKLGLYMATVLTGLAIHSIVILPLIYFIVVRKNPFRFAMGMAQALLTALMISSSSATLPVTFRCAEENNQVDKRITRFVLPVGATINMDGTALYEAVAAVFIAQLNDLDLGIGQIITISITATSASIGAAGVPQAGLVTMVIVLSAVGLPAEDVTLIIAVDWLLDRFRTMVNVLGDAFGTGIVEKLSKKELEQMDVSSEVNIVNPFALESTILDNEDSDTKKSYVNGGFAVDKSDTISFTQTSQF
Protocol: (§1) In accordance with a known method (Shimamoto, K. et al., Mol. Pharmacol. 53, 195-201, 1998; Bioorg. Med. Chem. Lett. 10, 2407-2410, 2000), the inhibitory activity was assayed as the ability to inhibit the uptake of [^14C]-glutamic acid by human EAAT2 and EAAT3 stably expressed in MDCK (Madin-Darby canine kidney) cells or transiently expressed in COS-1 cells. The glutamate uptake activity was assayed by incubating a mixture of 1 μM of L-[^14C]-glutamic acid with a sample compound at a predetermined concentration for 12 minutes, lysing the cells and then measuring the radioactivity incorporated into the cells with a liquid scintillator. The amount of uptake was expressed in percentage by referring the amount of uptake in the absence of a test compound (i.e., the buffer alone) as 100% and referring the amount of uptake in a sodium-free solution as 0%.

[2] = target: EAAT2 (Homo sapiens, UniProt P43004); assay: Inhibition of [14C]-glutamic acid uptake by EAAT2 expressed in MDCK or COS-1 cells; type: cell-based; parameters: expressed in transfected cells; settings: 1 μM L-[14C]-glutamic acid, 12 minutes
Protocol: as §1

[3] = Octanol-water partition coefficient (Log P); type: physicochemical; settings: octanol/phosphate buffer, mean ± S.D.
Protocol: Equal amounts of octanol and a phosphate buffer were mixed together and [^125I]I-BzA-TBOA was added thereto. After repeatedly shaking for 1 minute and allowing to stand for 1 minute three times, the mixture was allowed to stand for 20 minutes. After repeating this procedure three times, it was centrifuged (1,000×g, 10 min, 4° C.) and the radioactivity of each layer was measured. Thus, the partition coefficient was calculated (Table 1).

[4] = Biodistribution of radioactivity after intravenous injection in mice; settings: mean ± S.D.
[5] = 2 min after i.v. administration
[6] = 5 min after i.v. administration
[7] = 15 min after i.v. administration
[8] = 30 min after i.v. administration

EAAT2, sequence (P43004 whole entry): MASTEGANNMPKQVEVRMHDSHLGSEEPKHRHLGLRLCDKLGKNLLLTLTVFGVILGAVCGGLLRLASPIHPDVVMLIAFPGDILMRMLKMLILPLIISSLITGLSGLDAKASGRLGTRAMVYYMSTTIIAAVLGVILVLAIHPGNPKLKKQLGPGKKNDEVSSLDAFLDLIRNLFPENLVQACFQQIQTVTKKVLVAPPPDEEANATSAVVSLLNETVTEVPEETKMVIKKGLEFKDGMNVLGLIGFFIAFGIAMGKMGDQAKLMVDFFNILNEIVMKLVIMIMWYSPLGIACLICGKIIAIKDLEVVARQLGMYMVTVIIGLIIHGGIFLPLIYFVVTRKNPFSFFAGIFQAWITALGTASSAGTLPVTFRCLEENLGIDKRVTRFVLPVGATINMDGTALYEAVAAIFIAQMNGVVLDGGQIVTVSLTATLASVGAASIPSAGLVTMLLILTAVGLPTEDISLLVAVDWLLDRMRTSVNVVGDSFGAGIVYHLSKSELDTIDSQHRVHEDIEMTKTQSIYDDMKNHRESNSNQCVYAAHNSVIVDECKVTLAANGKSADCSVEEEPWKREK

For `N[C@H](C(=O)O)[C@H](OCc1cccc(NC(=O)c2ccc(I)cc2)c1)C(=O)O` [I-BzA-TBOA, (2S,3S)-3-[3-(4-iodobenzoylamino)benzyloxy]aspartic acid], the IC50 [1] was 56 ± 1.8 nM and the IC50 [2] was 4.8 ± 0.32 nM.
In the case of `N[C@H](C(=O)O)[C@H](OCc1cccc(NC(=O)c2ccc([125I])cc2)c1)C(=O)O` [[^125I]I-BzA-TBOA, (2S,3S)-3-[3-(4-[^125I]iodobenzoylamino)benzyloxy]aspartic acid], the “Octanol/water partition coefficient (Log P)” value ([3]; PH 3.0) is reported as 0.641 ± 0.006, the “Octanol/water partition coefficient (Log P)” value ([3]; PH 7.0) is reported as −0.821 ± 0.003 and the “Octanol/water partition coefficient (Log P)” value ([3]; PH 7.4) is reported as −0.849 ± 0.006. For the same molecule, the “Octanol/water partition coefficient (Log P)” value ([3]; PH 8.0) was −0.936 ± 0.007, the “Radioactivity in Blood” value [4, 5] was 2.29 ± 0.23 percentage of injection dose per gram of each tissue and the “Radioactivity in Blood” value [4, 6] was 1.58 ± 0.25 percentage of injection dose per gram of each tissue. The “Radioactivity in Blood” value [4, 7] was 0.67 ± 0.19 percentage of injection dose per gram of each tissue, the “Radioactivity in Blood” value [4, 8] was 0.40 ± 0.12 percentage of injection dose per gram of each tissue and the “Radioactivity in Blood” value ([4]; 1 hr after i.v. administration) was 0.16 ± 0.04 percentage of injection dose per gram of each tissue. The “Radioactivity in Blood” value ([4]; 2 hr after i.v. administration) was 0.07 ± 0.01 percentage of injection dose per gram of each tissue, the “Radioactivity in Brain” value [4, 5] was 0.21 ± 0.09 percentage of injection dose per gram of each tissue and the “Radioactivity in Brain” value [4, 6] was 0.19 ± 0.18 percentage of injection dose per gram of each tissue. The “Radioactivity in Brain” value [4, 7] was 0.06 ± 0.09 percentage of injection dose per gram of each tissue, the “Radioactivity in Brain” value [4, 8] was 0.10 ± 0.13 percentage of injection dose per gram of each tissue and the “Radioactivity in Brain” value ([4]; 1 hr after i.v. administration) was 0.01 ± 0.02 percentage of injection dose per gram of each tissue. For the same molecule, the “Radioactivity in Brain” value ([4]; 2 hr after i.v. administration) was 0.18 ± 0.23 percentage of injection dose per gram of each tissue, the “Radioactivity in Heart” value [4, 5] was 0.93 ± 0.06 percentage of injection dose per gram of each tissue and the “Radioactivity in Heart” value [4, 6] was 0.64 ± 0.13 percentage of injection dose per gram of each tissue. The “Radioactivity in Heart” value [4, 7] was 0.33 ± 0.04 percentage of injection dose per gram of each tissue, the “Radioactivity in Heart” value [4, 8] was 0.19 ± 0.14 percentage of injection dose per gram of each tissue and the “Radioactivity in Heart” value ([4]; 1 hr after i.v. administration) was 0.04 ± 0.02 percentage of injection dose per gram of each tissue. For the same molecule, the “Radioactivity in Heart” value ([4]; 2 hr after i.v. administration) was 0.00 ± 0.00 percentage of injection dose per gram of each tissue, the “Radioactivity in Intestine” value [4, 5] was 1.76 ± 0.15 percentage of injection dose per gram of each tissue and the “Radioactivity in Intestine” value [4, 6] was 4.51 ± 1.36 percentage of injection dose per gram of each tissue. The “Radioactivity in Intestine” value [4, 7] was 12.28 ± 0.72 percentage of injection dose per gram of each tissue, the “Radioactivity in Intestine” value [4, 8] was 15.91 ± 1.65 percentage of injection dose per gram of each tissue and the “Radioactivity in Intestine” value ([4]; 1 hr after i.v. administration) was 20.05 ± 6.29 percentage of injection dose per gram of each tissue. For the same molecule, the “Radioactivity in Intestine” value ([4]; 2 hr after i.v. administration) was 23.69 ± 1.58 percentage of injection dose per gram of each tissue, the “Radioactivity in Kidney” value [4, 5] was 15.17 ± 2.34 percentage of injection dose per gram of each tissue and the “Radioactivity in Kidney” value [4, 6] was 16.02 ± 0.57 percentage of injection dose per gram of each tissue. The “Radioactivity in Kidney” value [4, 7] was 14.47 ± 2.59 percentage of injection dose per gram of each tissue, the “Radioactivity in Kidney” value [4, 8] was 8.29 ± 2.63 percentage of injection dose per gram of each tissue and the “Radioactivity in Kidney” value ([4]; 1 hr after i.v. administration) was 2.08 ± 0.15 percentage of injection dose per gram of each tissue. For the same molecule, the “Radioactivity in Kidney” value ([4]; 2 hr after i.v. administration) was 1.03 ± 0.23 percentage of injection dose per gram of each tissue, the “Radioactivity in Liver” value [4, 5] was 28.71 ± 1.97 percentage of injection dose per gram of each tissue and the “Radioactivity in Liver” value [4, 6] was 22.52 ± 4.43 percentage of injection dose per gram of each tissue. For the same molecule, the “Radioactivity in Liver” value [4, 7] was 11.11 ± 0.24 percentage of injection dose per gram of each tissue, the “Radioactivity in Liver” value [4, 8] was 4.96 ± 1.65 percentage of injection dose per gram of each tissue and the “Radioactivity in Liver” value ([4]; 1 hr after i.v. administration) was 1.95 ± 0.46 percentage of injection dose per gram of each tissue. For the same molecule, the “Radioactivity in Liver” value ([4]; 2 hr after i.v. administration) was 1.50 ± 0.43 percentage of injection dose per gram of each tissue, the “Radioactivity in Lung” value [4, 5] was 3.11 ± 0.22 percentage of injection dose per gram of each tissue and the “Radioactivity in Lung” value [4, 6] was 2.44 ± 0.59 percentage of injection dose per gram of each tissue. For the same molecule, the “Radioactivity in Lung” value [4, 7] was 1.39 ± 0.12 percentage of injection dose per gram of each tissue, the “Radioactivity in Lung” value [4, 8] was 0.64 ± 0.42 percentage of injection dose per gram of each tissue and the “Radioactivity in Lung” value ([4]; 1 hr after i.v. administration) was 0.26 ± 0.06 percentage of injection dose per gram of each tissue. The “Radioactivity in Lung” value ([4]; 2 hr after i.v. administration) was 0.10 ± 0.02 percentage of injection dose per gram of each tissue, the “Radioactivity in Pancreas” value [4, 5] was 2.10 ± 0.24 percentage of injection dose per gram of each tissue and the “Radioactivity in Pancreas” value [4, 6] was 2.13 ± 0.26 percentage of injection dose per gram of each tissue. For the same molecule, the “Radioactivity in Pancreas” value [4, 7] was 0.94 ± 0.02 percentage of injection dose per gram of each tissue, the “Radioactivity in Pancreas” value [4, 8] was 0.33 ± 0.23 percentage of injection dose per gram of each tissue and the “Radioactivity in Pancreas” value ([4]; 1 hr after i.v. administration) was 0.10 ± 0.06 percentage of injection dose per gram of each tissue. For the same molecule, the “Radioactivity in Pancreas” value ([4]; 2 hr after i.v. administration) was 0.06 ± 0.04 percentage of injection dose per gram of each tissue, the “Radioactivity in Spleen” value [4, 5] was 1.11 ± 0.12 percentage of injection dose per gram of each tissue and the “Radioactivity in Spleen” value [4, 6] was 0.65 ± 0.12 percentage of injection dose per gram of each tissue. For the same molecule, the “Radioactivity in Spleen” value [4, 7] was 0.30 ± 0.04 percentage of injection dose per gram of each tissue, the “Radioactivity in Spleen” value [4, 8] was 0.11 ± 0.07 percentage of injection dose per gram of each tissue and the “Radioactivity in Spleen” value ([4]; 1 hr after i.v. administration) was 0.03 ± 0.04 percentage of injection dose per gram of each tissue. The “Radioactivity in Spleen” value ([4]; 2 hr after i.v. administration) was 0.03 ± 0.03 percentage of injection dose per gram of each tissue, the “Radioactivity in Stomach” value [4, 5] was 1.12 ± 0.20 percentage of injection dose per gram of each tissue and the “Radioactivity in Stomach” value [4, 6] was 0.78 ± 0.22 percentage of injection dose per gram of each tissue. The “Radioactivity in Stomach” value [4, 7] was 0.88 ± 0.13 percentage of injection dose per gram of each tissue, the “Radioactivity in Stomach” value [4, 8] was 0.58 ± 0.40 percentage of injection dose per gram of each tissue and the “Radioactivity in Stomach” value ([4]; 1 hr after i.v. administration) was 0.74 ± 0.80 percentage of injection dose per gram of each tissue. For the same molecule, the “Radioactivity in Stomach” value ([4]; 2 hr after i.v. administration) was 0.48 ± 0.19 percentage of injection dose per gram of each tissue.
